Source: US20100256145A1, “USE OF KCNQ POTASSIUM CHANNEL OPENERS FOR REDUCING SYMPTOMS OF OR TREATING DISORDERS OR CONDITIONS WHEREIN THE DOPAMINERGIC SYSTEM IS DISRUPTED” (H. LUNDBECK A/S, priority 2007, published 2010)
Marks after values point to notes of the source that are not given here.

Experiments:
[1] = system: dopaminergic neurons in the ventral tegmental area; assay: Spontaneous DA cell firing in the VTA of anaesthetised rats (extracellular single-cell recordings); settings: mean ± SEM
Method: Subjects. Male Wistar rats (Harlan, The Netherlands) weighing 270-340 g are used. The animals are housed under a 12-hr light/dark cycle under controlled conditions for regular in-door temperature (21±2° C.) and humidity (55±5%) with food and tap water available ad libitum.
Administration of compound. […] These i.v. doses match the s.c. dose range of 0-10 mg/kg.
Statistical analysis. Drug effects are assessed by statistical comparison of the mean firing rate calculated from the 2-3 min period immediately before the first drug administration (baseline) to the mean firing rate calculated from at least 60 s at the maximal drug effect. Data are analysed statistically by a one-way analysis of variance (ANOVA) followed by Student-Newman-Keuls post hoc test. A p-value less than 0.05 is considered significant.

[2] = system: immobility in the mouse forced swim test; assay: Mouse forced swim test; type: in vivo; settings: mice, time immobile during last 3 min of 6 min swim, vehicle = 100
Method: Subjects. Male NMRI mice (Charles River) weighing 23-25 g are used. […] 8 mice are used pr experimental group.
Experimental procedure. The mice are placed in 2000 ml beaker containing 1200 ml of tempered water (25° C.) and left to swim for 6 min. The performance of the mice is videorecorded, digitalized and analysed by means of a digital analysis system (Bioobserve). The time spent immobile for the last 3 min. of the test session is quantified for each mouse.
Analyses. […] A post-hoc test (Student-Newman-Keuls) is employed when appropriate. P-levels <0.05 were considered significant.

[3] = system: extracellular DA levels in the nucleus accumbens; assay: Microdialysis: amphetamine-evoked DA levels in the nucleus accumbens of freely moving rats; type: in vivo, rat; settings: for Normalised DA level in the nucleus accumbens: compound 5 mg/kg s.c., D-amphetamine 0.5 mg/kg s.c. 30 min later; for Effect on the basal extracellular DA level in the nucleus accumbens: without amphetamine, data not shown
Method: Subjects. Male Sprague-Dawley rats (Charles River), initially weighing 275-300 g, are used.
Surgery. Animals are anaesthetized with hypnorm/dormicum (2 ml/kg s.c.) and intracerebral guide cannulas (CMA/12) are stereotaxically implanted, positioning the dialysis probe tip in the nucleus accumbens (co-ordinates: 1.7 mm anterior to bregma, −1.2 mm lateral to bregma, 8.0 mm ventral to the dura). Anchor screws and acrylic cement is applied for fixation of the guide cannula. The body temperature of the animals is maintained at 37° C. by means of a rectal probe and a heating plate. The rats are allowed to recover from surgery for 2 days, housed singly in cages.
Experimental procedure. On the day of the experiment, a microdialysis probe (CMA/12, 0.5 mm diameter, 2 mm length) is inserted through the guide cannula of the conscious animal. The probes are connected to a microinjection pump via a dual channel swivel which allowed the animals unrestricted movements. Perfusion of the microdialysis probe with filtered Ringer solution (145 mM NaCl, 3 mM KCl, 1 mM MgCl2, 1.2 mM CaCl2) is maintained for the duration of the experiment at a constant flow rate of 1 μL/min. After 180 min of stabilisation, the experiments are initiated. Dialysates are collected every 20 min. After the experiments the rats are sacrificed by decapitation, their brains removed, frozen and sliced for probe placement verification.
Administration of compounds. […] Thirty minutes later, D-amphetamine sulphate (0.5 mg/kg s.c.) is administered.
Analysis of dialysate. The concentration of DA in the dialysates is assessed by means of HPLC with electrochemical detection. The dialysate constituents are separated by reverse phase liquid chromatography (ODS 150×3 mm, […]). Mobile phase consists of 90 mM NaH2PO4, 50 mM sodium citrate, 367 mg/l sodium 1-octanesulfonic acid, 50 μM EDTA and 8% acetonitrile (pH 4.0) at a flow rate of 0.5 ml/min. Electrochemical detection of DA is accomplished using a coulometric detector; potential set at E1=−75 mV and E2=300 mV (guard cell at 350 mV) (Coulochem II, ESA). The dialysate levels of DA in the three dialyse samples preceding the administration of compound are averaged and used as baseline level of DA (100%)
Statistical analysis. The dialysate levels of DA in the three dialyse samples preceding the administration of compound are averaged and used as baseline level of DA (100%). Data are analysed using repeated measure analyses of variance followed by post hoc tests (Tukey test), when appropriate. *P<0.05 were considered significant.

[4] = system: conditioned avoidance response; assay: Conditioned avoidance response in rats; type: in vivo, rat; settings: Rattus norvegicus, sc, rats, read-out: % inhibition of avoidance (Std. dev.) Relative to baseline; for inhibition at 2.5 mg/kg: 2.5 mg/kg s.c. 30 min before the test; for inhibition at 5 mg/kg: 5 mg/kg s.c. 30 min before the test
Method: Subjects. Male Wistar rats (Taconic, Denmark) weighing 150 g at the beginning of the study are used. The rats are housed in pairs and maintained on a 12 h light/dark cycle (lights on 06:00). The animals are fed once daily (approx. 6 pellets/rat) in order to keep the rats at 80% of their free-feeding weight. Water is available ad libitum. Temperature (21±1° C.) and relative humidity (55±5%) are automatically controlled.
Experimental procedure. Conditioned avoidance testing is conducted using four automated shuttle-boxes (ENV-010M, MED-Associates) each placed in a sound-attenuated chamber. Each box is divided into two compartments by a partition with an opening. The position of the animal and crossings from one compartment to the other are detected by two photocells placed on either side of the dividing wall. Upon presentation of the conditioned stimuli (CS), tone and light, the animals have 10s to cross to the other compartment of the shuttle-box in order to turn the CS off (end the trial) and avoid the appearance of the unconditioned stimulus (UCS). If the rat remains in the same compartment for more than 10s, the UCS is presented as 0.5 mA scrambled foot-shocks until escape is performed or 10s in maximal duration. The following behavioural variables are evaluated: avoidance (response to CS within 10s); escape (reponse to CS+UCS); escape failures (failure to respond); intertrial crosses and locomotor activity. The rats are habituated to the shuttle-box 3 min before each test session. During training each test session consists of 30 trials with intertrial intervals varying randomly between 20s and 30s. Training is carried out until the rats display an avoidance of 80% or more, on 3 consecutive days. A test is preceded by a pre-test the day before giving rise to a baseline value for each animal, thus the animals serve as their own control. Seven to eight rats are used at each dose level. A parallel control group receiving the vehicle of the test compound is also included.
Administration of compound. […] All compounds are dissolved in a vehicle of 10% 2-hydroxy-propyl-beta-cyclodextrin (isotonic with glucose, pH 5-7).
Statistical analyses. The effects of compounds on avoidance and escape failure behaviours are statistically evaluated by means of two-way repeated measures ANOVA followed by post hoc comparisons (Student-Newman-Keuls Method) when appropriate. P-levels <0.05 are considered statistically significant.

[5] = system: d-amphetamine induced hyperactivity in rats; assay: Amphetamine-induced hyperactivity in the rat (amphetamine antagonism); type: in vivo; settings: read-out: Amphetamine antagonism ED50 (mg/kg) ± std. dev.
Excerpt: Subjects. Male Wistar rats (Taconic, Denmark) weighing 170-240 g are used. […] Eight rats are used at each dose level and in the parallel control group receiving the vehicle to the test compound plus d-amphetamine and the group receiving vehicle injections only.

baseline motility = assay: Baseline motility in mice (vehicle-pretreated, vehicle-challenged); type: in vivo, mouse; settings: s.c., Std. Dev. in brackets
Method: Subjects. Male NMRI mice (Charles River) weighing approx. 35 g are used. […] 12 mice are used pr experimental group.
Experimental procedure. All mice are pre-treated once daily for five days with either d-amphetamine sulphate (2.5 mg/kg s.c.) or saline (10 ml/kg). For the 17 days between the last day of pre-treatment and the test day, the animals are kept in their homecage receiving the care as described above. The experiment is performed under normal light conditions in an undisturbed room. The mice are treated with test substance or vehicle and placed individually in the test cages for 30 min. The mice are then challenged with D-amphetamine sulphate (1.25 mg/kg s.c.) or saline (5 ml/kg) and replaced in the test-cage and data acquisition is begun. 5×8 infrared light sources and photocells interspaced by 4 cm monitor the locomotor activity. The light beams cross the cage 1.8 cm above the bottom of the cage.
Administration of compounds.
Data analyses. […] Similarly an ED50 for inhibiting baseline motility is calculated by expressed the motility response in vehicle-pretreated, vehicle-challenged, drug-treated animals relative to the baseline motility response. A therapeutic index value is subsequently calculated by dividing the first ED50 by the second.

[6] = 2.5 mg/kg s.c. 30 min before test
[7] = 5.0 mg/kg s.c. 30 min before test

Compound | Spontaneous DA cell firing rate in the VTA ([1]; cumulated dose 0.03 mg/kg i.v.) | Spontaneous DA cell firing rate in the VTA ([1]; cumulated dose 0.1 mg/kg i.v.) | Immobility in % (±S.D.) ([2]; 1.3 mg/kg) | Immobility in % (±S.D.) [2, 6] | Immobility in % (±S.D.) [2, 7] | Normalised DA level in the nucleus accumbens ([3]; Time 0 min (baseline sample)) | Normalised DA level in the nucleus accumbens ([3]; Time 20 min) | Normalised DA level in the nucleus accumbens ([3]; Time 40 min) | Normalised DA level in the nucleus accumbens ([3]; Time 60 min) | Normalised DA level in the nucleus accumbens ([3]; Time 80 min) | Normalised DA level in the nucleus accumbens ([3]; Time 100 min) | Normalised DA level in the nucleus accumbens ([3]; Time 120 min) | Normalised DA level in the nucleus accumbens ([3]; Time 140 min) | Normalised DA level in the nucleus accumbens ([3]; Time −20 min (baseline sample)) | Normalised DA level in the nucleus accumbens ([3]; Time −40 min (baseline sample)) | Effect on the basal extracellular DA level in the nucleus accumbens [3] | inhibition at 2.5 mg/kg [4] | inhibition at 5 mg/kg [4] | further results
Cc1cc(N2CCOCC2)cc(C)c1NC(=O)CC1CCCC1 | 95.1 ± 1.9 (4) percentage of baseline firing rate | 88.2 ± 2.8 (5) percentage of baseline firing rate | 97.5 (6.3) % | 97 (6.7) % | 81.0 (18)* % | 99 ± 4 % of baseline | 125 ± 9 % of baseline | 264 ± 39 % of baseline | 265 ± 17* % of baseline | 231 ± 22 % of baseline | 167 ± 25 % of baseline | 109 ± 11 % of baseline | 93 ± 15 % of baseline | 106 ± 5 % of baseline | 95 ± 6 % of baseline | None of the latter three compounds significantly affects the basal extracellular DA level | 5% | 65% | Spontaneous DA cell firing rate in the VTA ([1]; cumulated dose 0.3 mg/kg i.v.): 74.6 ± 3.6 (4) percentage of baseline firing rate; Spontaneous DA cell firing rate in the VTA ([1]; cumulated dose 0.6 mg/kg i.v.): 64.1 ± 7.1 (2) percentage of baseline firing rate; Spontaneous DA cell firing rate in the VTA ([1]; cumulated dose 0.9 mg/kg i.v.): 55.8 ± 6.5 (2) percentage of baseline firing rate
Cc1cc(N2CCOCC2)cc(C)c1NC(=O)CC(C)(C)C | 89.8 ± 4.5 (5) percentage of baseline firing rate | 81.0 ± 4.0 (5) percentage of baseline firing rate | 102 (4.6) % | 96.7 (7.5) % | 82.3 (20)* % | 91 ± 4 % of baseline | 112 ± 12 % of baseline | 227 ± 46 % of baseline | 262 ± 53* % of baseline | 195 ± 38* % of baseline | 172 ± 24 % of baseline | 166 ± 32 % of baseline | 129 ± 35 % of baseline | 100 ± 3 % of baseline | 108 ± 5 % of baseline | None of the latter three compounds significantly affects the basal extracellular DA level | 1% | 71% | Spontaneous DA cell firing rate in the VTA ([1]; cumulated dose 0.25 mg/kg i.v.): 74.1 ± 6.3 (4) percentage of baseline firing rate; Spontaneous DA cell firing rate in the VTA ([1]; cumulated dose 0.5 mg/kg i.v.): 68.1 ± 6.0 (4) percentage of baseline firing rate; Spontaneous DA cell firing rate in the VTA ([1]; cumulated dose 1.0 mg/kg i.v.): 57.1 ± 7.9 (3) percentage of baseline firing rate
Cc1cc2c(s1)Nc1ccccc1N=C2N1CCN(C)CC1 [Olanzapine, reference compound] | – | – | 95 (11) % | – | – | – | – | – | – | – | – | – | – | – | – | – | – | – | Immobility in % (±S.D.) ([2]; 0.31 mg/kg): 96 (14) %; ED50 [5]: 0.21 mg/kg
CCOC(=O)Nc1ccc(NCc2c(C)cc(C)cc2C)cc1N [[2-Amino-4-(2,4,6-trimethyl-benzylamino)-phenyl]-carbamic acid ethyl ester] | – | – | – | – | – | – | – | – | – | – | – | – | – | – | – | – | – | – | Inhibition of baseline motility, ED50 (baseline motility): 4.3 mg/kg
